IC50 data for 22 molecules are collected here from patent publication US20240294531A1, “COVALENT HETEROCYCLES AND USES THEREOF” (Kumquat Biosciences Inc., priority 2022, published 2024).

For experiment [1], the target named is BTK wildtype protein (Homo sapiens (Human), UniProt Q06187). In words: BTK wildtype HTRF displacement assay. In kind it is binding. As to conditions: 1-hour incubation; read-out: BTK (wt) IC50. Summed up: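 Full-length N-terminal GST-tagged BTK incubated 1 h at room temperature with compound (6 doses, four-fold dilutions from 5 μM top) plus kinase tracer 239 and anti-GST-Tb antibody. Tracer displacement read as TR-FRET 665/620 ratio, background-subtracted using no-protein control. IC50 from four-parameter fit constrained 0–100% inhibition.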
Sequence of BTK wildtype protein (Q06187 2-659): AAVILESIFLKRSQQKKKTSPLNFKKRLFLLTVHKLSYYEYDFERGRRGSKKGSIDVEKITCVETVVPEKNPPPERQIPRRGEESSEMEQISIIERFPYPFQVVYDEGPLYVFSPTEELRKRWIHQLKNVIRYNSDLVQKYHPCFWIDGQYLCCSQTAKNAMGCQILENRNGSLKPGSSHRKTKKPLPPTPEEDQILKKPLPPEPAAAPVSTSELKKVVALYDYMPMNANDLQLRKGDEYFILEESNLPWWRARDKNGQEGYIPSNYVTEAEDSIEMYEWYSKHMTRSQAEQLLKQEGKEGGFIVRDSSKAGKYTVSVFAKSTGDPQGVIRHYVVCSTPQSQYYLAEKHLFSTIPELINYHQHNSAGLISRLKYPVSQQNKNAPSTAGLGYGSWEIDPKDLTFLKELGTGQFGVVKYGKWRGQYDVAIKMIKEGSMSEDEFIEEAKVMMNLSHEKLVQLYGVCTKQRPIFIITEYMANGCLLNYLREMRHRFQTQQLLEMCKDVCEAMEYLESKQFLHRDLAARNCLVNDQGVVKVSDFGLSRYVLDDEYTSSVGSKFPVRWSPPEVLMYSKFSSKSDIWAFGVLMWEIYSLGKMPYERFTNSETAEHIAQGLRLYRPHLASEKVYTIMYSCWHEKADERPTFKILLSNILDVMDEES

The target in experiment [2] is BTK C481S protein (Homo sapiens (Human), UniProt Q06187, C481S). In words: BTK C481S HTRF displacement assay. In kind it is binding. The note with it: 1-hour incubation. In outline:
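N-terminal GST-tagged BTK C481S (2-659) incubated 1 hour at room temperature with compound (6 doses, four-fold from 5 μM), 50 nM kinase tracer 239 and anti-GST-Tb antibody. TR-FRET 665/620 ratio, background-subtracted; IC50 from constrained four-parameter fit. KI=IC50/(1+[Tracer]/Kd), tracer Kd 54 nM.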

Sequence of BTK C481S protein (Q06187 2-659 C481S): as the sequence (Q06187 2-659) above, with C480S counted along it

For `COCCC(CN(C)C(=O)n1cncn1)n1nc(-c2ccc(CNC(=O)c3cc(F)ccc3OC)cc2)c2c(N)ncnc21` (centres unmarked) [Compound 291, N-(2-(4-amino-3-(4-((5-fluoro-2-methoxybenzamido)methyl)phenyl)-1H-pyrazolo[3,4-d]pyrimidin-1-yl)-4-methoxybutyl)-N-methyl-1H-1,2,4-triazole-1-carboxamide], the IC50 in experiment [1] and in experiment [2] was over 1000 nM throughout.

Turning to `COc1ccc(F)cc1C(=O)NCc1ccc(-c2nn(C[C@H]3CCCN3C(=O)n3cncn3)c3ncnc(N)c23)cc1` [Compound 292, (R)-N-(4-(1-((1-(1H-1,2,4-triazole-1-carbonyl)pyrrolidin-2-yl)methyl)-4-amino-1H-pyrazolo[3,4-d]pyrimidin-3-yl)benzyl)-5-fluoro-2-methoxybenzamide], the IC50 in experiment [1] and in experiment [2] was at most 1000 nM in each case.

With `COc1ccc(F)cc1C(=O)NCc1ccc(-c2nn(CC3CCCN3C(=O)n3cncn3)c(N)c2C(N)=O)cc1` (centres unmarked) [Compound 293, 1-((1-(1H-1,2,4-triazole-1-carbonyl)pyrrolidin-2-yl)methyl)-5-amino-3-(4-((5-fluoro-2-methoxybenzamido)methyl)phenyl)-1H-pyrazole-4-carboxamide], the IC50 in experiment [1] and in experiment [2] was at most 1000 nM each time.

Consider `COc1ccc(F)cc1C(=O)NCc1ccc(-c2nn(CC3CCCC3N(C)C(=O)n3cncn3)c(N)c2C(N)=O)cc1` (centres unmarked) [Compound 294, N-(2-((5-amino-4-carbamoyl-3-(4-((5-fluoro-2-methoxybenzamido)methyl)phenyl)-1H-pyrazol-1-yl)methyl)cyclopentyl)-N-methyl-1H-1,2,4-triazole-1-carboxamide], for which the IC50 in experiment [1] and in experiment [2] was at most 1000 nM throughout.

On to `COc1ccc(F)cc1C(=O)NCc1ccc(-c2nn(CC3CCCCN(C(=O)n4cncn4)C3)c(N)c2C(N)=O)cc1` (centres unmarked) [Compound 296, 1-((1-(1H-1,2,4-triazole-1-carbonyl)azepan-3-yl)methyl)-5-amino-3-(4-((5-fluoro-2-methoxybenzamido)methyl)phenyl)-1H-pyrazole-4-carboxamide], for which the IC50 in experiment [1] and in experiment [2] was at most 1000 nM in each case.

Consider `CN(C(=O)n1cncn1)[C@@H]1CCC[C@H](n2nc(-c3ccc(Oc4ccccc4)cc3)c(C(N)=O)c2N)C1` [Compound 297, N-((1R,3S)-3-(5-amino-4-carbamoyl-3-(4-phenoxyphenyl)-1H-pyrazol-1-yl)cyclohexyl)-N-methyl-1H-1,2,4-triazole-1-carboxamide], for which the IC50 in experiment [1] and in experiment [2] was at most 1000 nM each time.

Regarding `COc1ccc(F)cc1C(=O)NCc1ccc(-c2nn(CC3CC(O)CCN3C(=O)n3cncn3)c3ncnc(N)c23)cc1` (centres unmarked) [Compound 298, N-(4-(4-amino-1-((4-hydroxy-1-(1H-1,2,4-triazole-1-carbonyl)piperidin-2-yl)methyl)-1H-pyrazolo[3,4-d]pyrimidin-3-yl)benzyl)-5-fluoro-2-methoxybenzamide], the IC50 in experiment [1] and in experiment [2] was over 1000 nM in each case.

Regarding `CN(C(=O)n1cnc(Cl)n1)C1CCC(n2nc(-c3ccc(Oc4ccccc4)cc3)c3c(N)ncnc32)CC1` (centres unmarked) [Compound 299, N-(4-(4-amino-3-(4-phenoxyphenyl)-1H-pyrazolo[3,4-d]pyrimidin-1-yl)cyclohexyl)-3-chloro-N-methyl-1H-1,2,4-triazole-1-carboxamide], the IC50 in experiment [1] and in experiment [2] was at most 1000 nM throughout.

Take `COc1nn(C)cc1Nc1nc(N2CCCC(N(C)C(=O)n3cncn3)C2)nc2c1ncn2C` (centres unmarked) [Compound 300, N-(1-(6-((3-methoxy-1-methyl-1H-pyrazol-4-yl)amino)-9-methyl-9H-purin-2-yl)piperidin-3-yl)-N-methyl-1H-1,2,4-triazole-1-carboxamide]: the results for the IC50 in experiment [1] and in experiment [2] were over 1000 nM and at most 1000 nM, respectively.

Consider `CC(C)[C@@H](C1CCNc2c(C(N)=O)c(-c3ccc(Oc4ccccc4)cc3)nn21)N(C)C(=O)n1cncn1` (stereo partly drawn) [Compound 301, 7-((S)-2-methyl-1-(N-methyl-1H-1,2,4-triazole-1-carboxamido)propyl)-2-(4-phenoxyphenyl)-4,5,6,7-tetrahydropyrazolo [1,5-a]pyrimidine-3-carboxamide], for which the IC50 in experiment [1] and in experiment [2] was over 1000 nM throughout.

For the molecule `COc1ccc(F)cc1C(=O)NCc1ccc(-c2nn(C(C)CCN(C)C(=O)n3cncn3)c3ncnc(N)c23)cc1` (centres unmarked) [Compound 303, N-(3-(4-amino-3-(4-((5-fluoro-2-methoxybenzamido)methyl)phenyl)-1H-pyrazolo[3,4-d]pyrimidin-1-yl)butyl)-N-methyl-1H-1,2,4-triazole-1-carboxamide], the IC50 in experiment [1] and in experiment [2] was at most 1000 nM each time.

Turning to `COc1ccc(F)cc1C(=O)NCc1ccc(-c2nn(C(C)C3CCCCN3C(=O)n3cncn3)c3ncnc(N)c23)cc1` (centres unmarked) [Compound 304, N-(4-(1-(1-(1-(1H-1,2,4-triazole-1-carbonyl)piperidin-2-yl)ethyl)-4-amino-1H-pyrazolo[3,4-d]pyrimidin-3-yl)benzyl)-5-fluoro-2-methoxybenzamide], the IC50 in experiment [1] and in experiment [2] was at most 1000 nM each time.

On to `CN(C(=O)n1cncn1)c1ccccc1C1CCNc2c(C(N)=O)c(-c3ccc(Oc4ccccc4)cc3)nn21` (centres unmarked) [Compound 305, 7-(2-(N-methyl-1H-1,2,4-triazole-1-carboxamido)phenyl)-2-(4-phenoxyphenyl)-4,5,6,7-tetrahydropyrazolo[1,5-a] pyrimidine-3-carboxamide], for which the IC50 in experiment [1] and in experiment [2] was over 1000 nM each time.

`NC(=O)c1c(-c2ccc(Oc3ccccc3)cc2)nn2c1NCC1CN(C(=O)n3cncn3)CCC12` (centres unmarked) [Compound 306, 2-(4-phenoxyphenyl)-7-(1H-1,2,4-triazole-1-carbonyl)-4,5,5a,6,7,8,9,9a-octahydropyrazolo[1,5-a]pyrido[3,4-e]pyrimidine-3-carboxamide]: the IC50 in experiment [1] and in experiment [2] was at most 1000 nM in each case.

`COc1ccc(F)cc1C(=O)NCc1ccc(-c2nn(C[C@H]3CCC[C@H]3CN(C)C(=O)n3cncn3)c3ncnc(N)c23)cc1` [Compound 307, N-(((1R,2S)-2-((4-amino-3-(4-((5-fluoro-2-methoxybenzamido)methyl)phenyl)-1H-pyrazolo [3,4-d]pyrimidin-1-yl)methyl)cyclopentyl)methyl)-N-methyl-1H-1,2,4-triazole-1-carboxamide]: the IC50 in experiment [1] and in experiment [2] was at most 1000 nM each time.

For `CC(CN(C)C(=O)n1cncn1)C1CCNc2c(C(N)=O)c(-c3ccc(Oc4ccccc4)cc3)nn21` (centres unmarked) [Compound 308, 7-(1-(N-methyl-1H-1,2,4-triazole-1-carboxamido)propan-2-yl)-2-(4-phenoxyphenyl)-4,5,6,7-tetrahydropyrazolo[1,5-a] pyrimidine-3-carboxamide], the IC50 in experiment [1] and in experiment [2] was at most 1000 nM in each case.

As to `CC(CC1CCNc2c(C(N)=O)c(-c3ccc(Oc4ccccc4)cc3)nn21)N(C)C(=O)n1cncn1` (centres unmarked) [Compound 309, 7-(2-(N-methyl-1H-1,2,4-triazole-1-carboxamido)propyl)-2-(4-phenoxyphenyl)-4,5,6,7-tetrahydro-pyrazolo[1,5-a]pyrimidine-3-carboxamide], the IC50 in experiment [1] and in experiment [2] was at most 1000 nM in each case.

`COc1ccc(F)cc1C(=O)NCc1ccc(-c2nn(CC3CCC(N(C)C(=O)n4cncn4)C3)c3ncnc(N)c23)cc1` (centres unmarked) [Compound 311, N-(3-((4-amino-3-(4-((5-fluoro-2-methoxybenzamido)methyl)phenyl)-1H-pyrazolo[3,4-d]pyrimidin-1-yl)methyl)cyclopentyl)-N-methyl-1H-1,2,4-triazole-1-carboxamide]: the IC50 in experiment [1] and in experiment [2] was at most 1000 nM each time.

Take `COc1ccc(F)cc1C(=O)NCc1ccc(-c2nn([C@H]3CC[C@H](N(C)C(=O)n4cncn4)C3)c3ncnc(N)c23)cc1` [Compound 312, N-((1S,3S)-3-(4-amino-3-(4-((5-fluoro-2-methoxybenzamido)methyl)phenyl)-1H-pyrazolo [3,4-d]pyrimidin-1-yl)cyclopentyl)-N-methyl-1H-1,2,4-triazole-1-carboxamide]: the IC50 in experiment [1] and in experiment [2] was at most 1000 nM throughout.

For the molecule `COc1ccc(F)cc1C(=O)NCc1ccc(-c2nn(CC3CN(C(C)=O)CCN3C(=O)n3cncn3)c3ncnc(N)c23)cc1` (centres unmarked) [Compound 313, N-(4-(1-((4-acetyl-1-(1H-1,2,4-triazole-1-carbonyl)piperazin-2-yl)methyl)-4-amino-1H-pyrazolo[3,4-d]pyrimidin-3-yl)benzyl)-5-fluoro-2-methoxybenzamide], the half-inhibitory concentration (IC50) in experiment [1] and in experiment [2] was over 1000 nM in each case.

As for `COc1ccc(F)cc1C(=O)NCc1ccc(-c2nn(C[C@H](C)N(C)C(=O)n3cncn3)c3ncnc(N)c23)cc1` [Compound 315, (S)-N-(1-(4-amino-3-(4-((5-fluoro-2-methoxybenzamido)methyl)phenyl)-1H-pyrazolo[3,4-d]pyrimidin-1-yl)propan-2-yl)-N-methyl-1H-1,2,4-triazole-1-carboxamide], the IC50 in experiment [1] and in experiment [2] was over 1000 nM each time.

For the molecule `COc1ccc(F)cc1C(=O)NCc1ccc(-c2nn(CCN(C(=O)n3cncn3)C3CC3)c3ncnc(N)c23)cc1` [Compound 316, N-(2-(4-amino-3-(4-((5-fluoro-2-methoxybenzamido)methyl)phenyl)-1H-pyrazolo[3,4-d]pyrimidin-1-yl)ethyl)-N-cyclopropyl-1H-1,2,4-triazole-1-carboxamide], the IC50 in experiment [1] and in experiment [2] was over 1000 nM throughout.
